Laboratory results as given in patent publication US5691373A, “Nonpeptide endothelin antagonists I” (Warner-Lambert Company, priority 1995, dated 1997).
Like-named read-outs stand apart in the source and are kept apart here.

Columns and labels:
ETB = target: T1, ETB (Rattus norvegicus, UniProt P21451)
T1 sequence (P21451 27-442): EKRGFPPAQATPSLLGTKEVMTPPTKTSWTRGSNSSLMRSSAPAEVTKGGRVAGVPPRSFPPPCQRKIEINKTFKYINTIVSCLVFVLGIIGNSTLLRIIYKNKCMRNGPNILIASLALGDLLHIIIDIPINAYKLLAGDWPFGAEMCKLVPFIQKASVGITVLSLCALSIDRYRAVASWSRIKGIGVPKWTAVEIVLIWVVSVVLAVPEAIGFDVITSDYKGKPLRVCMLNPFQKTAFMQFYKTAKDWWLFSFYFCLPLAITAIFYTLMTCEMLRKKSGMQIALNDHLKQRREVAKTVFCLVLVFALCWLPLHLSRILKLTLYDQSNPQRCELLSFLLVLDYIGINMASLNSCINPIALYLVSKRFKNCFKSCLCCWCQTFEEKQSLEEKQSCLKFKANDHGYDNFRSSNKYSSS

human ETB receptor = target: T2, human ETB receptor (Homo sapiens, UniProt P24530); test: ERBA-B: [125I]-ET-1 binding, recombinant human ETB receptor expressed in CHO-K1 cells; settings: human cloned ETB receptor, read-out: ERBA-B IC50, human cloned receptor data
T2 construct: expressed in transfected cells; host or cells: CHO-K1 cells, pRc-CMW (so in the source) expression vector, electroporation; membranes used
T2 sequence (P24530 27-442): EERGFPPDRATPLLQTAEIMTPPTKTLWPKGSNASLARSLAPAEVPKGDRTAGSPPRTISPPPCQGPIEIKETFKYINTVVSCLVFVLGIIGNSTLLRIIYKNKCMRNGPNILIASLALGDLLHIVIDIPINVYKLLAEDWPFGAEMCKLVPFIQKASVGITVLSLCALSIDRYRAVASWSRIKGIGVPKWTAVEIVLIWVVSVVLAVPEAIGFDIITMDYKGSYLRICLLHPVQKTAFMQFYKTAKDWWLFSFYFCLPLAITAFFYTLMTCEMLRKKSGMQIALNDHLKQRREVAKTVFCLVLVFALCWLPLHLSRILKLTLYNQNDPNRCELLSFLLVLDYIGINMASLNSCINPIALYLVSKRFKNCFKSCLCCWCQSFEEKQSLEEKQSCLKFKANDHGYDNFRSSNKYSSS

ETA = target: T3, ETA (Oryctolagus cuniculus, UniProt A5A8K3); settings: ERBA-A IC50, [125I]-ET-1, rabbit renal artery vascular smooth muscle cells
T3 sequence (A5A8K3 21-427): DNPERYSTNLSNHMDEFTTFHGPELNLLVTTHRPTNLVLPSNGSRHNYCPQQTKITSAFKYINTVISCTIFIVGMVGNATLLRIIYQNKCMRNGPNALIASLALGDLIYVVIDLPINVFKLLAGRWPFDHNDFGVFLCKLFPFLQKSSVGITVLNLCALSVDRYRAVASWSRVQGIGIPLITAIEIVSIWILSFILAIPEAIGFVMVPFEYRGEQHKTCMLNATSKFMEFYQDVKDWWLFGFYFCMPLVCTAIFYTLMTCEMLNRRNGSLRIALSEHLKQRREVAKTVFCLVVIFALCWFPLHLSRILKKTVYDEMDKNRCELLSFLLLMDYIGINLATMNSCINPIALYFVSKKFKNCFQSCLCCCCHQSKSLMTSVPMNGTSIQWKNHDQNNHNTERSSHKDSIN

CC(C)c1ccc(C2=C(Cc3cccc4ccccc34)C(O)(c3ccc(Cl)cc3)OC2=O)cc1 (racemic) [Example 40, 2(5H)-Furanone, 5-(4-chlorophenyl)-5-hydroxy-3-[4-(1-methylethyl)phenyl]-4-(1-naphthalenylmethyl)-, (±)-]
inhibition at 10 µM (ETB; read-out: ERBA-B % inhibition): 22%

CN(C)c1ccc(C2=C(Cc3ccc4c(c3)OCO4)C(O)(c3ccc(Cl)cc3)OC2=O)cc1 (racemic) [Example 54, 2(5H)-Furanone, 4-(1,3-benzodioxol-5-ylmethyl)-5-(4-chlorophenyl)-3-[4-(dimethylamino)phenyl]-5-hydroxy-, (±)-]
IC50 (ETB): 18000 nM

CN(C)c1ccc(CC2=C(c3ccc(N(C)C)cc3)C(=O)OC2(O)c2ccc(Cl)cc2)cc1 (racemic) [Example 55, 2(5H)-Furanone, 5-(4-chlorophenyl)-3-[4-(dimethylamino)phenyl]-4-[[4-(dimethylamino)phenyl]methyl]-5-hydroxy-, (±)-]
IC50 (ETB): 21000 nM

COc1ccc(C2=C(Cc3ccc(N(C)C)cc3)C(O)(c3ccc(Cl)cc3)OC2=O)cc1OC (racemic) [Example 71, 2(5H)-Furanone, 5-(4-Chlorophenyl)-3-(3,4-dimethoxyphenyl)-4-[[4-(dimethylamino)phenyl]methyl]-5-hydroxy-, (±)-]
IC50 (ETB): 4200 nM

O=C1OC(O)(c2ccccc2)C(Cc2ccccc2)=C1c1ccc2c(c1)OCO2 (stereo not drawn) [Example 24, 2(5H)-Furanone, 3-(1,3-benzodioxol-5-yl)-5-hydroxy-5-phenyl-4-(phenylmethyl)-]
IC50 (ETB): 26000 nM

O=C1OC(O)(c2ccc(Cl)cc2)C(Cc2ccccc2)=C1c1ccc2c(c1)OCO2 (stereo not drawn) [Example 39, 2(5H)-Furanone, 3-(1,3-benzodioxol-5-yl)-5-(4-chlorophenyl)-5-hydroxy-4-(phenylmehyl)-]
IC50 (ETB): 4200 nM

COc1ccc(CC2=C(c3ccc4c(c3)OCO4)C(=O)OC2(O)c2ccc(OC)cc2)cc1 (stereo not drawn) [Example 77, 3-Benzo[1,3]dioxol-5-yl-5-hydroxy-4-(4-methoxybenzyl)-5-(4-methoxyphenyl)-5 H-furan-2-one]
IC50 (ETB; read-out: ERBA-B IC50, [125I]-ET-1, rat cerebellar membranes): 220 nM

COc1ccc(C/C(C(=O)c2ccc(OC)cc2)=C(/C(=O)O)c2ccc3c(c2)OCO3)cc1 [Example 380, Sodium2-Benzo[1,3]dioxol-5-yl-3-(4-methoxy-benzyl)-4-(4-methoxy-phenyl)-4-o xo-but-2-enoate]
IC50 (human ETB receptor): 2000 nM | IC50 (ETA): 24 nM

CCCCCCCCOc1ccc(CC2=C(c3cc(OC)cc(OC)c3)C(=O)OC2(O)c2ccc(OC)cc2)cc1OC (stereo not drawn) [Example 381, 3-(3,5-Dimethoxy-phenyl)-5-hydroxy-4-(3-methoxy-4-octyloxy-benzyl)-5-(4-methoxy-phenyl)-5H-furan-2-one]
IC50 (human ETB receptor): 570 nM | IC50 (ETA): 68 nM

COc1cc(OC)cc(C2=C(Cc3ccc(NC(C)=O)cc3)C(O)(c3ccc(OC)c(C)c3)OC2=O)c1 (stereo not drawn) [Example 385, N-{4-[4-(3,5-Dimethoxy-phenyl)-2-hydroxy-2-(4-methoxy-3-methyl-phenyl)-5-oxo-2,5-dihydro-furan-3-ylmethyl]-phenyl}-acetamide]
IC50 (human ETB receptor): 690 nM | IC50 (ETA): 0.8 nM

COc1cc(OC)cc(C2=C(Cc3ccc(OC(C)C)c(OC)c3)C(O)(c3ccc(OC)c(C)c3)OC2=O)c1 (stereo not drawn) [Example 390, 3-(3,5-Dimethoxy-phenyl)-5-hydroxy-4-(4-isopropoxy-3-methoxy-benzyl)-5-(4-methoxy-3-methyl-phenyl)-5H-furan-2-one]
IC50 (human ETB receptor): 820 nM | IC50 (ETA): 7 nM

COc1ccc(C2(O)OC(=O)C(c3ccc4c(c3)OCO4)=C2Cc2ccc(OC(C)C)c(OC)c2)cc1C (stereo not drawn) [Example 391, 3-Benzo[1,3]dioxol-5-yl-5-hydroxy-4-(4-isopropoxy-3-methoxy-benzyl)-5-(4-methoxy-3-methyl-phenyl)-5H-furan-2-one]
IC50 (human ETB receptor): > 250 nM | IC50 (ETA): 1.8 nM

COc1cc(OC)cc(/C(C(=O)O)=C(\Cc2c(OC)cc(OC)cc2OC)C(=O)c2ccc(OC)c(C)c2)c1 [Example 392]
IC50 (human ETB receptor): 14000 nM | IC50 (ETA): 3800 nM

CCCCCCCCOc1ccc(CC2=C(c3cc(OC)cc(OC)c3)C(=O)OC2(O)c2ccc(OC)c(C)c2)cc1OC (stereo not drawn) [Example 393, 3-(3,5-Dimethoxy-phenyl)-5-hydroxy-5-(4-methoxy-3-methyl-phenyl)-4-(3-methoxy-4-octyloxy-benzyl)-5H-furan-2-one]
IC50 (human ETB receptor): 830 nM | IC50 (ETA): 240 nM

CCCCCCCCOc1ccc(CC2=C(c3ccc4c(c3)OCO4)C(=O)OC2(O)c2ccc(OC)c(C)c2)cc1OC (stereo not drawn) [Example 394, 3-Benzo[1,3]dioxol-5-yl-5-hydroxy-5-(4-methoxy-3-methyl-phenyl)-4-(3-methoxy-4-octyloxy-benzyl)-5H-furan-2-one]
IC50 (human ETB receptor): 420 nM | IC50 (ETA): 68 nM

COc1ccc(C2(O)OC(=O)C(c3ccc4c(c3)OCO4)=C2Cc2ccc(OC(C)C)c(C)c2)cc1C (stereo not drawn) [Example 395, 3-Benzo[1,3]dioxol-5-yl-5-hydroxy-4-(4-isopropoxy-3-methyl-benzyl)-5-(4-methoxy-3-methyl-phenyl)-5H-furan-2-one]
IC50 (human ETB receptor): 840 nM | IC50 (ETA): 13 nM

COc1cc(OC)cc(C2=C(Cc3ccc(OC(C)C)c(C)c3)C(O)(c3ccc(OC)c(C)c3)OC2=O)c1 (stereo not drawn) [Example 396, 3-(3,5-Dimethoxy-phenyl)-5-hydroxy-4-(4-isopropoxy-3-methyl-benzyl)-5-(4-methoxy-3-methyl-phenyl)-5H-furan-2-one]
IC50 (human ETB receptor): 1200 nM | IC50 (ETA): 47 nM

COc1ccc(C2(O)OC(=O)C(c3ccc4c(c3)OCO4)=C2Cc2ccc(OC3CCCCC3)c(C)c2)cc1 (stereo not drawn) [Example 397, 3-Benzo[1,3]dioxol-5-yl-4-(4-cyclohexyloxy-3-methylbenzyl)-5-hydroxy-5-(4-methoxy-phenyl)-5H-furan-2-one]
IC50 (human ETB receptor): 2600 nM | IC50 (ETA): 610 nM

COc1ccc(C2(O)OC(=O)C(c3ccc4c(c3)OCO4)=C2CC2CCCc3ccccc32)cc1 (stereo not drawn) [Example 398, 3-Benzo[1,3]dioxol-5-yl-5-hydroxy-5-(4-methoxy-phenyl)-4-(1,2,3,4-tetrahydro-naphthalen-1-ylmethyl)-5H-furan-2-one]
IC50 (human ETB receptor): > 2500 nM | IC50 (ETA): 830 nM

COC(=O)C1CCCC(CC2=C(c3ccc4c(c3)OCO4)C(=O)OC2(O)c2ccc(OC)cc2)C1 (stereo not drawn) [Example 399, 3-[4-Benzo[1,3]dioxol-5-yl-2-hydroxy-2-(4-methoxyphenyl)-5-oxo-2,5-dihydro-furan-3-ylmethyl]-cyclohexanecarboxylic acid methyl ester]
IC50 (human ETB receptor): 1100 nM | IC50 (ETA): 20 nM

COc1ccc(C2(O)OC(=O)C(c3ccc4c(c3)OCO4)=C2CC2CC2)cc1 (stereo not drawn) [Example 400, 3-Benzo[1,3]dioxol-5-yl-4-cyclopropylmethyl-5-hydroxy-5-(4-methoxy-phenyl)-5H-furan-2-one]
IC50 (human ETB receptor): > 2500 nM | IC50 (ETA): 39 nM

COc1ccc(C2(O)OC(=O)C(c3ccc4c(c3)OCO4)=C2CC2CCCC(C(=O)O)C2)cc1 (stereo not drawn) [Example 403, 3-[4-Benzo[1,3]dioxol-5-yl-2-hydroxy-2-(4-methoxyphenyl)-5-oxo-2,5-dihydro-furan-3-ylmethyl]-cyclohexanecarboxylic acid]
IC50 (human ETB receptor): 3000 nM | IC50 (ETA): 250 nM

COc1ccc(C2(O)OC(=O)C(c3ccc4c(c3)OCO4)=C2Cc2ccc(C(C)C)cc2)cc1 (stereo not drawn) [Example 404, 3-Benzo[1,3]dioxol-5-yl-5-hydroxy-4-(4-isopropylbenzyl)-5-(4-methoxy-phenyl)-5H-furan-2-one]
IC50 (human ETB receptor): > 2500 nM | IC50 (ETA): 58 nM
